Earlier results on three compounds are cited in patent EP1574563B1, “Use of detergent tablets” (UNILEVER N.V., priority 2004, dated 2005).

Each structure is given as a SMILES string. Where two headings read alike, the source gives them in different places.

Setting [1] is: other common materials, by contrast, at 20°C.

In the case of `O=P(O)(O)OP(=O)(O)OP(=O)(O)O` [Sodium tripolyphosphate anhydrous], the “Water Solubility (g/100g)” value under setting [1] is 15 g/100g.
As for `NC(N)=O` [Urea], the “Water Solubility (g/100g)” value (highly water-soluble materials, grams of solid required to form a saturated solution in 100 grams of water at 20°C) is over 100 g/100g.
With `O=BO[O-].[Na+]` [Sodium perborate anhydrous], under setting [1], the “Water Solubility (g/100g)” value is reported as 3.7 g/100g.
